# Measured values as given in PubChem BioAssay (NCI).
#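 Interpolation was linear, between the two tested concentrations surrounding the appropriate level; five concentrations were tested over 48 hours in 96-well plates. GI50 marks 50% less growth. TGI marks complete inhibition of growth.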
# Experiments:
# Assay in all cases: inhibition of tumour cell growth, NCI panel, 48 h
# [1] = tested on: M14 melanoma
# [2] = tested on: SF-268 CNS
# [3] = tested on: MDA-MB-231 breast
# [4] = tested on: SR leukemia
# [5] = tested on: HOP-92 NSCLC
# [6] = tested on: SF-539 CNS
# [7] = tested on: OVCAR-8 ovarian
# [8] = tested on: A549 NSCLC
# [9] = tested on: MCF7 breast
# [10] = tested on: OVCAR-3 ovarian
# [11] = tested on: SK-OV-3 ovarian
# [12] = tested on: NCI/ADR-RES ovarian
# [13] = tested on: K-562 leukemia
# [14] = tested on: UACC-62 melanoma
# [15] = tested on: LOX IMVI melanoma
# [16] = tested on: MALME-3M melanoma
# [17] = tested on: 786-0 renal
# [18] = tested on: HCT-15 colon
# [19] = tested on: UO-31 renal
# [20] = tested on: OVCAR-4 ovarian
# [21] = tested on: SW-620 colon
# [22] = tested on: BT-549 breast
# [23] = tested on: SNB-75 CNS
# [24] = tested on: HCC-2998 colon
# [25] = tested on: HOP-62 NSCLC
# [26] = tested on: SK-MEL-5 melanoma
# [27] = tested on: PC-3 prostate
# [28] = tested on: SN12C renal
# [29] = tested on: NCI-H23 lung
# [30] = tested on: SNB-19 CNS
# [31] = tested on: KM12 colon
# [32] = tested on: CCRF-CEM leukemia
# [33] = tested on: RPMI-8226 leukemia
# [34] = tested on: SK-MEL-2 melanoma
# [35] = tested on: SK-MEL-28 melanoma
# [36] = tested on: TK-10 renal
# [37] = tested on: COLO 205 colon
# [38] = tested on: ACHN renal
# [39] = tested on: NCI-H460 lung
# [40] = tested on: HL-60(TB) leukemia
# [41] = tested on: HCT-116 colon
# [42] = tested on: DU-145 prostate
# [43] = tested on: HT29 colon
# [44] = tested on: U251 CNS
# [45] = tested on: NCI-H522 lung
# [46] = tested on: RXF 393 renal
# [47] = tested on: IGROV1 ovarian
# [48] = tested on: UACC-257 melanoma
# [49] = tested on: T-47D breast
# [50] = tested on: MOLT-4 leukemia
# [51] = tested on: CAKI-1 renal
# [52] = tested on: MDA-MB-435
# [53] = tested on: HS 578T breast
# [54] = tested on: NCI-H226 lung
# [55] = tested on: OVCAR-5 ovarian
# [56] = tested on: SF-295 CNS
# [57] = tested on: A498 renal
# [58] = tested on: EKVX NSCLC
smiles,measurement,setting,value
CCN(Cc1cc(F)cc(F)c1)c1ccc(CO)c(Cl)c1,GI50,[1],15.3 µM
same,TGI,[1],32.4 µM
same,GI50,[2],15.5 µM
same,TGI,[2],31.3 µM
same,GI50,[3],13 µM
same,TGI,[3],26.7 µM
same,GI50,[4],17.2 µM
same,TGI,[4],43.6 µM
same,GI50,[5],0.195 µM
same,TGI,[5],9.25 µM
same,GI50,[6],15.1 µM
same,TGI,[6],29.5 µM
same,GI50,[7],13.4 µM
same,TGI,[7],34.7 µM
same,GI50,[8],2.36 µM
same,TGI,[8],21.5 µM
same,GI50,[9],0.208 µM
same,TGI,[9],12.8 µM
same,GI50,[10],0.342 µM
same,TGI,[10],2.31 µM
same,GI50,[11],10.5 µM
same,TGI,[11],25.7 µM
same,GI50,[12],14.8 µM
same,TGI,[12],38.4 µM
same,GI50,[13],1.04 µM
same,TGI,[13],23 µM
same,GI50,[14],0.115 µM
same,TGI,[14],0.909 µM
same,GI50,[15],14.4 µM
same,TGI,[15],28.2 µM
same,GI50,[16],15 µM
same,TGI,[16],30.4 µM
same,GI50,[17],12.5 µM
same,TGI,[17],27.2 µM
same,GI50,[18],12.4 µM
same,TGI,[18],29.9 µM
same,GI50,[19],3.24 µM
same,TGI,[19],21.4 µM
same,GI50,[20],0.168 µM
same,TGI,[20],2.73 µM
same,GI50,[21],0.652 µM
same,TGI,[21],18.6 µM
same,GI50,[22],14.4 µM
same,TGI,[22],29.1 µM
same,GI50,[23],8.49 µM
same,TGI,[23],27.3 µM
same,GI50,[24],7.68 µM
same,TGI,[24],23.6 µM
same,GI50,[25],2.67 µM
same,TGI,[25],20.2 µM
same,GI50,[26],11.8 µM
same,TGI,[26],24.2 µM
same,GI50,[27],12.5 µM
same,TGI,[27],27.1 µM
same,GI50,[28],12.1 µM
same,TGI,[28],25.2 µM
same,GI50,[29],12.3 µM
same,TGI,[29],33.5 µM
same,GI50,[30],14.9 µM
same,TGI,[30],41.2 µM
same,GI50,[31],13 µM
same,TGI,[31],26.6 µM
same,GI50,[32],18.5 µM
same,TGI,[32],66.5 µM
same,GI50,[33],2.48 µM
same,TGI,[33],26.1 µM
same,GI50,[34],4.43 µM
same,TGI,[34],20.2 µM
same,GI50,[35],13.7 µM
same,TGI,[35],26.8 µM
same,GI50,[36],0.0425 µM
same,TGI,[36],0.236 µM
same,GI50,[37],3 µM
same,TGI,[37],10.5 µM
same,GI50,[38],13.3 µM
same,TGI,[38],27 µM
same,GI50,[39],0.205 µM
same,TGI,[39],12.5 µM
same,GI50,[40],7.25 µM
same,TGI,[40],32.7 µM
same,GI50,[41],0.0723 µM
same,TGI,[41],8.31 µM
same,GI50,[42],15.4 µM
same,TGI,[42],34.2 µM
same,GI50,[43],3.74 µM
same,TGI,[43],17.1 µM
same,GI50,[44],0.992 µM
same,TGI,[44],16.4 µM
same,GI50,[45],13.5 µM
same,TGI,[45],29.4 µM
same,GI50,[46],2.54 µM
same,TGI,[46],17.5 µM
same,GI50,[47],0.0726 µM
same,TGI,[47],0.38 µM
same,GI50,[48],0.0986 µM
same,TGI,[48],0.429 µM
same,GI50,[49],0.118 µM
same,TGI,[49],0.782 µM
same,GI50,[50],18.3 µM
same,TGI,[50],51 µM
same,GI50,[51],0.456 µM
same,TGI,[51],2.64 µM
same,GI50,[52],14.4 µM
same,TGI,[52],30 µM
same,GI50,[53],16.4 µM
same,TGI,[53],44.7 µM
same,GI50,[54],0.0801 µM
same,TGI,[54],0.214 µM
same,GI50,[55],0.0668 µM
same,TGI,[55],0.287 µM
same,GI50,[56],0.379 µM
same,TGI,[56],14.3 µM
same,GI50,[57],0.0343 µM
same,TGI,[57],0.167 µM
NC(CCCCO)C(=O)O (configuration not stated),TGI,[1],> 100 µM
same,TGI,[2],> 100 µM
same,TGI,[3],> 100 µM
same,TGI,[4],> 100 µM
same,TGI,[5],> 100 µM
same,TGI,[7],> 100 µM
same,TGI,[8],> 100 µM
same,TGI,[9],> 100 µM
same,TGI,[10],> 100 µM
same,TGI,[11],> 100 µM
same,TGI,[12],> 100 µM
same,TGI,[58],> 100 µM
same,TGI,[13],> 100 µM
same,TGI,[14],> 100 µM
same,TGI,[15],> 100 µM
same,TGI,[16],> 100 µM
same,TGI,[18],> 100 µM
same,TGI,[19],> 100 µM
same,TGI,[20],> 100 µM
same,TGI,[21],> 100 µM
same,TGI,[22],> 100 µM
same,TGI,[23],> 100 µM
same,TGI,[24],> 100 µM
same,TGI,[25],> 100 µM
same,TGI,[26],> 100 µM
same,TGI,[27],> 100 µM
same,TGI,[29],> 100 µM
same,TGI,[30],> 100 µM
same,TGI,[31],> 100 µM
same,TGI,[32],> 100 µM
same,TGI,[33],> 100 µM
same,TGI,[34],> 100 µM
same,TGI,[35],> 100 µM
same,TGI,[36],> 100 µM
same,TGI,[37],> 100 µM
same,TGI,[38],> 100 µM
same,TGI,[39],> 100 µM
same,TGI,[40],> 100 µM
same,TGI,[42],> 100 µM
same,TGI,[43],> 100 µM
same,TGI,[44],> 100 µM
same,TGI,[45],> 100 µM
same,TGI,[46],> 100 µM
same,TGI,[47],> 100 µM
same,TGI,[48],> 100 µM
same,TGI,[49],> 100 µM
same,TGI,[51],> 100 µM
same,TGI,[52],> 100 µM
same,TGI,[53],> 100 µM
same,TGI,[54],> 100 µM
same,TGI,[55],> 100 µM
same,TGI,[56],> 100 µM
same,TGI,[57],> 100 µM
